Source: patent publication US8853246B2 (Dow AgroSciences LLC, priority 2009, dated 2014)

Tests used:
[1] = test system: Green Peach Aphid (Myzus Persicae); experiment: Insecticidal test for green peach aphid in foliar spray assay (col. MYZUPE); format: in vivo; conditions: Myzus persicae, 72 h, green peach aphid, read-out: MYZUPE 200 ppm (Corrected % Control, rating)
Method: (§1) The compounds were tested against cotton aphid, green peach aphid, and sweet potato whitefly using procedures described in the following examples and reported in Table 2.
(§2) In each case of Table 2, the rating scale is as follows at 200 ppm.
Insecticidal Test for Green Peach Aphid (Myzus Persicae) in Foliar Spray Assay
Cabbage seedlings grown in 3-inch pots, with 2-3 small (3-5 cm) true leaves, were used as test substrate. The seedlings were infested with 20-50 green peach aphids (wingless adult and nymph) one day prior to chemical application. Four pots with individual seedlings were used for each treatment. Compounds (2 mg) were dissolved in 2 mL of acetone/methanol (1:1) solvent, forming stock solutions of 1000 ppm. The stock solutions were diluted 5× with 0.025% Tween 20 in H2O to obtain a test solution at 200 ppm. A hand-held Devilbiss sprayer was used for spraying a solution to both sides of cabbage leaves until runoff. Reference plants (solvent check) were sprayed with the diluent only. Treated plants were held in a holding room for three days at approximately 25° C. and 40% relative humidity (RH) prior to grading. Evaluation was conducted by counting the number of live aphids per plant under a microscope. Corrected % Control=100*(X−Y)/X • where X=No. of live aphids on solvent check plants • Y=No. of live aphids on treated plants

[2] = test system: Sweetpotato Whitefly-Crawler (Bemisia Tabaci); experiment: Insecticidal test for sweetpotato whitefly-crawler in foliar spray assay (col. BEMITA); format: in vivo; conditions: Bemisia tabaci, sweetpotato whitefly-crawler, read-out: BEMITA 200 ppm (Corrected % Control, rating)
Method: as §1, §2
Insecticidal Test for Sweetpotato Whitefly-Crawler (Bemisia Tabaci) in Foliar Spray Assay
Cotton plants grown in 3-inch pots, with 1 small (3-5 cm) true leaf, were used as test substrate. The plants were placed in a room with whitefly adults. Adults were allowed to deposit eggs for 2-3 days. After a 2-3 day egg-laying period, plants were taken from the adult whitefly room. Adults were blown off leaves using a hand-held Devilbiss sprayer (23 psi). Plants with egg infestation (100-300 eggs per plant) were placed in a holding room for 5-6 days at 82° F. and 50% RH for egg hatch and crawler stage to develop. Four cotton plants were used for each treatment. Compounds (2 mg) were dissolved in 1 mL of acetone solvent, forming stock solutions of 2000 ppm. The stock solutions were diluted 10× with 0.025% Tween 20 in H2O to obtain a test solution at 200 ppm. A hand-held Devilbiss sprayer was used for spraying a solution to both sides of cotton leaf until runoff. Reference plants (solvent check) were sprayed with the diluent only. Treated plants were held in a holding room for 8-9 days at approximately 82° F. and 50% RH prior to grading. Evaluation was conducted by counting the number of live nymphs per plant under a microscope. Insecticidal activity was measured by using Abbott's correction formula and presented in Table 2 (see col. “BEMITA”): Corrected % Control=100*(X−Y)/X • where X=No. of live nymphs on solvent check plants • Y=No. of live nymphs on treated plants Pesticidally Acceptable Acid Addition Salts, Salt Derivatives, Solvates, Ester Derivatives, Polymorphs, Isotopes and Radionuclides

Cc1nc(-c2cccnc2)sc1N(C(=O)OC(C)(C)C)C(C)C [Compound 13, Isopropyl-(4-methyl-2-pyridin-3-yl-thiazol-5-yl)-carbamic acid tert-butyl ester]
pest or weed control at 200 ppm [1]: 80 to 100%
pest or weed control at 200 ppm [2]: 80 to 100%

Cc1nc(-c2cccnc2)sc1N(CC(C)C)C(=O)OC(C)(C)C [Compound 14, Isobutyl-(4-methyl-2-pyridin-3-yl-thiazol-5-yl)-carbamic acid tert-butyl ester]
pest or weed control at 200 ppm [1]: < 80%
pest or weed control at 200 ppm [2]: 80 to 100%

Cc1nc(-c2cccnc2)sc1N(Cc1ccccc1)C(=O)OC(C)(C)C [Compound 15, Benzyl-(4-methyl-2-pyridin-3-yl-thiazol-5-yl)-carbamic acid tert-butyl ester]
pest or weed control at 200 ppm [1]: 80 to 100%
pest or weed control at 200 ppm [2]: 80 to 100%

CN(C(=O)OC(C)(C)C)c1cnc(-c2ccc(Cl)nc2)s1 [Compound 16, [2-(6-chloropyridin-3-yl)-thiazol-5-yl]-methyl-carbamic acid tert-butyl ester]
pest or weed control at 200 ppm [1]: < 80%
pest or weed control at 200 ppm [2]: 80 to 100%

CSCC(C)C(=O)Nc1sc(-c2cncc(Cl)c2)nc1C (stereo not shown) [Compound 17, N-[2-(5-chloropyridin-3-yl)-4-methyl-thiazol-5-yl]-2-methyl-3-methylsulfanyl-propionamide]
pest or weed control at 200 ppm [1]: 80 to 100%
pest or weed control at 200 ppm [2]: 80 to 100%

CSCC(C)(C)C(=O)N(C)c1cnc(-c2cncc(F)c2)s1 [Compound 18, N-[2-(5-fluoropyridin-3-yl)-thiazol-5-yl]-2,2,N-trimethyl-3-methylsulfanyl-propionamide]
pest or weed control at 200 ppm [1]: 80 to 100%
pest or weed control at 200 ppm [2]: 80 to 100%

CSCC(C)(C)C(=O)Nc1sc(-c2ccc(F)nc2)nc1C [Compound 20, N-[2-(6-fluoropyridin-3-yl)-4-methyl-thiazol-5-yl]-2,2-dimethyl-3-methylsulfanyl-propionamide]
pest or weed control at 200 ppm [1]: 80 to 100%
pest or weed control at 200 ppm [2]: 80 to 100%

Cc1nc(-c2cccnc2)sc1N(C(=O)C(C)C)C(=O)C(C)C [Compound 21, N-isobutyryl-N-(4-methyl-2-pyridin-3-yl-thiazol-5-yl)-isobutyramide]
pest or weed control at 200 ppm [1]: 80 to 100%
pest or weed control at 200 ppm [2]: 80 to 100%

CSCCC(=O)N(C)c1sc(-c2cccnc2)nc1C [Compound 35]
pest or weed control at 200 ppm [1]: 80 to 100%
pest or weed control at 200 ppm [2]: 80 to 100%

CSCC(C)C(=O)N(C)c1sc(-c2cccnc2)nc1C (stereo not shown) [Compound 36]
pest or weed control at 200 ppm [1]: 80 to 100%
pest or weed control at 200 ppm [2]: 80 to 100%

Cc1nc(-c2cccnc2)sc1N(C)C(=O)C(C)C [Compound 37]
pest or weed control at 200 ppm [1]: 80 to 100%
pest or weed control at 200 ppm [2]: 80 to 100%

CSCCC(=O)N(C)c1sc(-c2cncc(F)c2)nc1C [Compound 38]
pest or weed control at 200 ppm [1]: 80 to 100%
pest or weed control at 200 ppm [2]: 80 to 100%

CSCC(C)(C)C(=O)N(C)c1sc(-c2cncc(F)c2)nc1C [Compound 39]
pest or weed control at 200 ppm [1]: 80 to 100%
pest or weed control at 200 ppm [2]: 80 to 100%

CSCC(C)C(=O)N(C)c1sc(-c2cncc(F)c2)nc1C (stereo not shown) [Compound 40]
pest or weed control at 200 ppm [1]: 80 to 100%
pest or weed control at 200 ppm [2]: 80 to 100%

CSCCC(=O)N(C)c1sc(-c2cccnc2)nc1C(F)(F)F [Compound 43]
pest or weed control at 200 ppm [1]: 80 to 100%
pest or weed control at 200 ppm [2]: 80 to 100%

CSCC(C)C(=O)N(C)c1sc(-c2cccnc2)nc1C(F)(F)F (stereo not shown) [Compound 44]
pest or weed control at 200 ppm [1]: 80 to 100%
pest or weed control at 200 ppm [2]: 80 to 100%

CSCC(C)(C)C(=O)N(C)c1sc(-c2cccnc2)nc1C(F)(F)F [Compound 45]
pest or weed control at 200 ppm [1]: < 80%
pest or weed control at 200 ppm [2]: 80 to 100%

CC(C)C(=O)N(C)c1sc(-c2cccnc2)nc1C(F)(F)F [Compound 46]
pest or weed control at 200 ppm [1]: < 80%
pest or weed control at 200 ppm [2]: < 80%

CCc1nc(-c2cccnc2)sc1N(C)C(=O)CCSC [Compound 47]
pest or weed control at 200 ppm [1]: 80 to 100%
pest or weed control at 200 ppm [2]: 80 to 100%

CCc1nc(-c2cccnc2)sc1N(C)C(=O)C(C)C [Compound 48]
pest or weed control at 200 ppm [1]: 80 to 100%
pest or weed control at 200 ppm [2]: 80 to 100%

CCc1nc(-c2cccnc2)sc1N(C)C(=O)C(C)(C)CSC [Compound 49]
pest or weed control at 200 ppm [1]: < 80%
pest or weed control at 200 ppm [2]: 80 to 100%

CCc1nc(-c2cccnc2)sc1N(C)C(=O)C(C)CSC (stereo not shown) [Compound 50]
pest or weed control at 200 ppm [1]: 80 to 100%
pest or weed control at 200 ppm [2]: 80 to 100%

CSCCC(=O)N(C)c1sc(-c2cncnc2)nc1C [Compound 51]
pest or weed control at 200 ppm [1]: 80 to 100%
pest or weed control at 200 ppm [2]: 80 to 100%

CSCC(C)C(=O)N(C)c1sc(-c2cncnc2)nc1C (stereo not shown) [Compound 52]
pest or weed control at 200 ppm [1]: < 80%
pest or weed control at 200 ppm [2]: 80 to 100%

CSCC(C)(C)C(=O)Nc1sc(-c2cccnc2)nc1C [Compound 57]
pest or weed control at 200 ppm [1]: 80 to 100%
pest or weed control at 200 ppm [2]: 80 to 100%

CSCCC(=O)N(C)c1sc(-c2cccnc2)nc1C(C)C [Compound 59]
pest or weed control at 200 ppm [1]: < 80%
pest or weed control at 200 ppm [2]: 80 to 100%

CSCC(C)C(=O)N(C)c1sc(-c2cccnc2)nc1C(C)C (stereo not shown) [Compound 60]
pest or weed control at 200 ppm [1]: < 80%
pest or weed control at 200 ppm [2]: < 80%

CCN(C(=O)CCSC)c1sc(-c2cccnc2)nc1-c1ccccc1 [Compound 61]
pest or weed control at 200 ppm [1]: < 80%
pest or weed control at 200 ppm [2]: < 80%

CCN(C(=O)C(C)CSC)c1sc(-c2cccnc2)nc1-c1ccccc1 (stereo not shown) [Compound 62]
pest or weed control at 200 ppm [1]: < 80%
pest or weed control at 200 ppm [2]: < 80%

CCN(C(=O)C(C)C)c1sc(-c2cccnc2)nc1-c1ccccc1 [Compound 63]
pest or weed control at 200 ppm [1]: < 80%
pest or weed control at 200 ppm [2]: < 80%

CSCCC(=O)N(C)c1sc(-c2cccnc2)nc1Cl [Compound 66, N-(4-chloro-2-pyridin-3-yl-thiazol-5-yl)-N-methyl-3-methylsulfanyl-propionamide]
pest or weed control at 200 ppm [1]: 80 to 100%
pest or weed control at 200 ppm [2]: 80 to 100%

CSCCNC(=O)N(C)c1cnc(-c2cncc(F)c2)s1 [Compound 72, [2-(5-fluoropyridin-3-yl)-thiazol-5-yl]-1-methyl-3-(2-methylsulfanyl-ethyl)urea]
pest or weed control at 200 ppm [1]: 80 to 100%
pest or weed control at 200 ppm [2]: < 80%

CCC(C)NC(=O)N(C)c1cnc(-c2cncc(F)c2)s1 (stereo not shown) [Compound 73, 3-sec-Butyl-1-[2-(5-fluoropyridin-3-yl)-thiazol-5-yl]-1-methyl-urea]
pest or weed control at 200 ppm [1]: 80 to 100%
pest or weed control at 200 ppm [2]: 80 to 100%

CSCCN(C)C(=O)N(C)c1cnc(-c2cncc(F)c2)s1 [Compound 74, [2-(5-fluoropyridin-3-yl)-thiazol-5-yl]-1,3-dimethyl-3-(2-methylsulfanyl-ethyl)urea]
pest or weed control at 200 ppm [1]: 80 to 100%
pest or weed control at 200 ppm [2]: 80 to 100%

CSCCOC(=O)N(C)c1cnc(-c2cncc(F)c2)s1 [Compound 75, [2-(5-fluoropyridin-3-yl)-thiazol-5-yl]-methyl-carbamic acid 2-methylsulfanyl-ethyl Ester]
pest or weed control at 200 ppm [1]: 80 to 100%
pest or weed control at 200 ppm [2]: < 80%

CCOC(=O)N(C)c1cnc(-c2cncc(F)c2)s1 [Compound 76, [2-(5-Fluoropyridin-3-yl)-thiazol-5-yl]-methyl-carbamic acid ethyl ester]
pest or weed control at 200 ppm [1]: 80 to 100%
pest or weed control at 200 ppm [2]: 80 to 100%

CN(C(=O)OCc1ccc([N+](=O)[O-])o1)c1cnc(-c2cncc(F)c2)s1 [Compound 77, [2-(5-Fluoropyridin-3-yl)-thiazol-5-yl]-methyl-carbamic acid 5-nitro-furan-2-ylmethyl ester]
pest or weed control at 200 ppm [1]: 80 to 100%
pest or weed control at 200 ppm [2]: < 80%

CN(C(=O)CC[S+](C)[O-])c1cnc(-c2cncc(F)c2)s1 (stereo not shown) [Compound 78, N-[2-(5-fluoropyridin-3-yl)-thiazol-5-yl]-3-methanesulfinyl-N-methyl-propionamide]
pest or weed control at 200 ppm [1]: 80 to 100%
pest or weed control at 200 ppm [2]: < 80%

Cc1nc(-c2cncc(F)c2)sc1N(C)C(=O)C(C)C[S+](C)[O-] (stereo not shown) [Compound 86]
pest or weed control at 200 ppm [1]: 80 to 100%
pest or weed control at 200 ppm [2]: 80 to 100%

Cc1nc(-c2cccnc2)sc1N(C)C(=O)C(C)C[S+](C)[O-] (stereo not shown) [Compound 87]
pest or weed control at 200 ppm [1]: 80 to 100%
pest or weed control at 200 ppm [2]: 80 to 100%

CN(C(=O)CC[S+](C)[O-])c1sc(-c2cccnc2)nc1C(F)(F)F (stereo not shown) [Compound 88]
pest or weed control at 200 ppm [1]: 80 to 100%
pest or weed control at 200 ppm [2]: 80 to 100%
